According to US5902736A, “Process for the production of D-α-amino acids by hydrolysis of the corresponding N-carbamyl derivative” (priority 1992, dated 1999):

Tests used:
Assay type in all cases: cell-based
[1] = tested on: decarbamylase of Comamonas sp. E 222 C; experiment: Substrate specificity of decarbamylase, cells of Comamonas sp. E 222 C; settings: cell suspension, 24 hours at 30° C.; for Substrate conversion, Comamonas sp. E 222 c (conversion to amino acids): 1% (w/v) substrate, 200 mM potassium phosphate
Description: For the determination of substrate specificity of decarbamylase of Comamonas sp. E 222 C and Blastobacter sp. A 17 p-4, these strains were cultured at 28° C. in the medium C (as described in Example 2) for 1 day (E 222 C) and 7 days (A 17 p-4). Three ml of the culture medium was centrifuged to separate the microorganism, which was suspended in 300 μl of a substrate solution (200 mM potassium phosphate, 1% (w/v) a substrate as listed below) and incubated for 24 hours at 30° C. (E 222 C) or 50° C. (A 17 p-4).

[2] = tested on: decarbamylase of Blastobacter sp. A 17 p-4; experiment: Substrate specificity of decarbamylase, cells of Blastobacter sp. A 17 p-4; settings: 1% (w/v) substrate, 200 mM potassium phosphate, cell suspension, 24 hours at 30° C.
Description: For the determination of substrate specificity of decarbamylase of Comamonas sp. E 222 C and Blastobacter sp. A 17 p-4, these strains were cultured at 28° C. in the medium C (as described in Example 2) for 1 day (E 222 C) and 7 days (A 17 p-4). […] (E 222 C) or 50° C. (A 17 p-4).

Comamonas sp. E 222 C = experiment: Promoters for the production of Comamonas sp. E 222 C decarbamylase; settings: 0.15% (w/v) additive in medium D, 2 days at 28° C.; D-HPG from 35 mM C-D-HPG, 24 hours at 30° C.
Description: The strain was cultured in a nutrient medium D (1 g/l KH2 PO4, 1 g/l K2 HPO4, 0.3 g/l MgSO4 ·7H2 O, 3 g/l yeast extract, 3 g/l meat extract, 10 g/l glycerol, 2 g/l polypeptone; pH 7.0) for 2 days at 28° C. The culture medium additionally contained a substance as listed in FIG. 2 in a concentration of 0.15% (w/v).
One ml of the culture medium was centrifuged to collect the microorganism, which was suspended in 100 μl of a substrate solution (35 mM C-D-HPG, 200 mM potassium phosphate; pH 7.0). After 24 hours at 30° C., D-HPG was quantitated by HPLC according to the procedure described in Example 2.

[3] = tested on: Blastobacter sp. A 17 p-4; experiment: Promoters for the production of Blastobacter sp. A 17 p-4 decarbamylase; settings: for decarbamylase yield of Blastobacter sp. A 17 p-4, effect of metal ions: 2 mM metal ion plus 0.15% (w/v) uracil in medium D, 4 days at 28° C.; for decarbamylase yield of Blastobacter sp. A 17 p-4: 0.15% (w/v) additive in medium D, 3 days at 28° C., D-HPG formation at 40° C.
Description: The strain was cultured at 28° C. for 3 days in the medium D (as defined in Example 4) additionally containing 0.15% (w/v) of a substance as listed in FIG. 7. Then, D-HPG was formed in the same way as in Example 4 but that the reaction temperature was 40° C., and quantitated by HPLC.
In order to examine the effects of metal ions on the enzyme productivity, the strain was cultured at 28° C. for 4 days in the medium D additionally containing 0.15% (w/v) of uracil and 2 mM a metal ion as listed in FIG. 8. It was found by quantitating D-HPG that ions such as Fe^2+, Fe^3+, Li^+, Cs^+, Be^2+, Mg^2+, Mn^2+, Co^2+ and Al^3+ increased the decarbamylase yield.

Row | Substrate conversion, Comamonas sp. E 222 c (conversion to amino acids) [1] | Structure (SMILES) | Substrate conversion, Blastobacter sp. A 17 p-4 (conversion to amino acids) [2] | other results
1 | ++++ (++++: 100%) | CC(C)[C@@H](NC(N)=O)C(=O)O [N-Carbamyl-D-valine] | +++ (+++: <80%) | 
2 | ++ (++: <50%) | CSCCC(NC(N)=O)C(=O)O (racemic) [N-Carbamyl-DL-methionine, N-carbamyl-DL-methionine] | ++ (++: <50%) | decarbamylase productivity of Comamonas sp. E 222 C (Comamonas sp. E 222 C): improved
3 |  | [Be+2] [Be^2+] |  | decarbamylase yield of Blastobacter sp. A 17 p-4, effect of metal ions [3]: increased
4 |  | O=C1CCNC(=O)N1 [dihydrouracil] |  | decarbamylase yield of Blastobacter sp. A 17 p-4 [3]: increased
5 |  | [Mg+2] [Mg^2+] |  | decarbamylase yield of Blastobacter sp. A 17 p-4, effect of metal ions [3]: increased
6 | - (-: 0%) | O=C1NC(=O)C(c2ccc(O)cc2)N1 (racemic) [DL-5-p-Hydroxyphenylhydantoin] | ++ (++: <50%) | 
7 |  | [Li+] [Li^+] |  | decarbamylase yield of Blastobacter sp. A 17 p-4, effect of metal ions [3]: increased
8 | ++++ (++++: 100%) | C[C@@H](NC(N)=O)C(=O)O [N-Carbamyl-D-alanine] | +++ (+++: <80%) | 
9 | + (+: <10%) | NC(=O)N[C@H](CO)C(=O)O [N-Carbamyl-D-serine] | - (-: 0%) | 
10 | - (-: 0%) | CC1NC(=O)NC1=O (racemic) [DL-5-Methylhydantoin] | ++ (++: <50%) | 
11 | +++ (+++: <80%) | NC(=O)N[C@@H](C(=O)O)c1ccc(O)cc1 [N-Carbamyl-D-p-hydroxyphenylglycine] | ++ (++: <50%) | 
12 | - (-: 0%) | CN(CC(=O)O)C(N)=O [N-Carbamyl-sarcosine] | - (-: 0%) | 
13 |  | [Co+2] [Co^2+] |  | decarbamylase yield of Blastobacter sp. A 17 p-4, effect of metal ions [3]: increased
14 | ++++ (++++: 100%) | NC(=O)NCCC(=O)O [β-Ureidopropionic acid] | - (-: 0%) | hydrolysis by Comamonas sp. E 222 C, in words [1]: could hydrolize; decarbamylase yield of Blastobacter sp. A 17 p-4 [3]: increased; decarbamylase productivity of Comamonas sp. E 222 C (Comamonas sp. E 222 C): improved
15 | ++++ (++++: 100%) | CC(C)C[C@@H](NC(N)=O)C(=O)O [N-Carbamyl-D-leucine] | +++ (+++: <80%) | 
16 |  | [Mn+2] [Mn^2+] |  | decarbamylase yield of Blastobacter sp. A 17 p-4, effect of metal ions [3]: increased
17 | + (+: <10%) | C[C@@H](O)[C@H](NC(N)=O)C(=O)O (racemic) [N-Carbamyl-DL-threonine] | - (-: 0%) | 
18 |  | [Fe+2] [Fe^2+] |  | decarbamylase yield of Blastobacter sp. A 17 p-4, effect of metal ions [3]: increased
19 |  | O=c1cc[nH]c(=O)[nH]1 [uracil] |  | decarbamylase yield of Blastobacter sp. A 17 p-4 [3]: increased
20 | +++ (+++: <80%) | NC(=O)N[C@@H](C(=O)O)c1ccccc1 [N-Carbamyl-D-phenylglycine] | +++ (+++: <80%) | 
21 |  | N[C@@H](C(=O)O)c1ccccc1 [D-phenylglycine] |  | decarbamylase productivity of Comamonas sp. E 222 C (Comamonas sp. E 222 C): improved
22 |  | NC(N)=O [urea] |  | decarbamylase productivity of Comamonas sp. E 222 C (Comamonas sp. E 222 C): improved
23 | - (-: 0%) | O=C1NC(=O)C(c2ccccc2)N1 (racemic) [DL-5-Phenylhydantoin] | ++ (++: <50%) | 
24 |  | [Al+3] [Al^3+] |  | decarbamylase yield of Blastobacter sp. A 17 p-4, effect of metal ions [3]: increased
25 |  | [Cs+] [Cs^+] |  | decarbamylase yield of Blastobacter sp. A 17 p-4, effect of metal ions [3]: increased
26 | - (-: 0%) | NC(=O)NC(CC(=O)O)C(=O)O (centres unmarked) [Ureidosuccinic acid] | - (-: 0%) | 
27 | ++ (++: <50%) | CCCC(NC(N)=O)C(=O)O (racemic) [N-Carbamyl-DL-norvaline] | ++ (++: <50%) | 
28 | ++ (++: <50%) | CCCCC(NC(N)=O)C(=O)O (racemic) [N-Carbamyl-DL-norleucine] | ++ (++: <50%) | 
29 | ++++ (++++: 100%) | NC(=O)N[C@H](Cc1ccccc1)C(=O)O [N-Carbamyl-D-phenylalanine, N-carbamyl-D-phenylalanine] | +++ (+++: <80%) | 
